Assay results: US20260294885A1, “TREATMENT OF INFLAMMATORY CONDITIONS COMPRISING IMU-856” (IMMUNIC AG, priority 2023, published 2026)
Entries after “also recorded” stand apart in the source; their conditions may differ.

What was measured:
claudin (Cldn)-1 = test: Tight junction protein claudin-1 in a TEER model; format: cell-based, human
Text: (§1) In one TEER model, tight junction (TJ)-related proteins were investigated, and a normalisation of TJ proteins (claudin (Cldn)-1 and claudin-2) was observed.

[1] = Clinical pharmacokinetics; format: in vivo, human
Description: In Part A, healthy subjects were randomised to single ascending doses of IMU-856 (10 mg to 160 mg) or placebo. In Part B healthy subjects were randomised to multiple once-daily doses of IMU-856 (40, 80, and 160 mg) or placebo for 14 days. Part C randomised patients with celiac disease who were on a gluten-free diet to multiple once-daily doses of IMU-856 (80 mg and 160 mg) or placebo for 28 days; a once-daily gluten challenge (6 g) was introduced on Day 14 and ended on Day 28. 71 healthy subjects were enrolled in Part A and B (N=19 placebo and N=52 IMU-856) and 43 patients with CelD in Part C (N=14 placebo; N=14 for 80 mg, and N=15 for 160 mg). In Parts A and B, treatment-emergent adverse events (TEAEs) occurred in 24 (73%) and 15 (79%) of subjects receiving any dose of IMU-856 compared to 6 (50%) and 5 (71%) with placebo, respectively. […] In Part C, the most common adverse events with any dose of IMU-856 by preferred term were headache (13 [45%]), nausea (9 [31%]), diarrhoea (8 [28%]), and abdominal distension (7 [24%]). […] In Part C, the mean change in villous height from baseline to Day 29 with 80 mg and 160 mg was −20.9±34.8 μm, and −22.5±51.1 μm, respectively, and −60.3±52.2 μm with placebo. […] Mean change in plasma citrulline increased with 80 mg and 160 mg from baseline to Day 14 (2.4±6.2 and 6.1±5.9 μmol/L, respectively) and from baseline to Day 29 (2.8±7.6 and 2.2±5.3 μmol/L, respectively), but not with placebo (−2.7±5.6 and −4.0±6.5 μmol/L). […] Mean increase in zinc levels from baseline to Day 29 with 80 mg and 160 mg were 0.3±1.4 and 0.9±2.1 μmol/L compared to a mean decrease in placebo (−0.9±2.1 μmol/L). Gluten-induced symptoms were also attenuated by IMU-856.

[2] = system: colorectal adenocarcinoma-2 (Caco-2) cells; test: TEER recovery across a Caco-2 monolayer following inflammation with TNF-α or IL-6; format: cell-based, human
Text: as §1
CaCo2 cell line is derived from human epithelial cells from the colon. They are frequently used to mimic intestinal barrier function to either look at permeability of drugs or to look at is functional resistance. For the present experiment, the CaCo2 cells were used to mimic the […] LEFT OUT] and investigate the effect of IMU-856 on this by measuring the electrical transepithelial resistance (TEER). […] For this CaCo2 cells, cultivated in a 6-well trans well plate on top of the membrane that has small pores that prevent the cells from going through but allow molecules and nutrients to pass. […] Then, cells were washed and fresh medium with vehicle or IMU-856 was given. TEER was measured before and after challenge at different time points. For correct measurement, the shorter electrode is inserted into the transwell chamber (without touching the cells), and the longer electrode is inserted in the outer well.

DSS-induced colitis = test: Therapeutic DSS-induced colitis mouse model (Example 3); format: in vivo, male C57BL/6 mice; conditions: 1 mg/kg per oral gavage once daily for 5 days from disease onset
Description: For this model, which is an often-used in vivo model for IBD, male C57BL/6 mice were treated with 2.8% DSS in drinking water for 5 days. Treatment with either vehicle (PEG400), 60 mg/kg sulfasalazine (positive control) or 1 mg/kg IMU-856 was given at disease onset (day 4 after start of DSS treatment) per oral gavage once daily for 5 days. Diarrhea score (normal consistency; soft; pasty, unshaped, not sticking to anus; diarrhea, sticking to anus; diarrhea with macroscopic bleeding) was assessed daily.
At the end of the study, mice were sacrificed and the colon was collected. Colon histology score consisting of an architecture score (0-3) and an infiltration score (0-3) was assessed based on hematoxylin and eosin-stained tissues slices.

[3] = system: patients with celiac disease; test: Mean corpuscular hemoglobin concentration, Part C; format: in vivo, human; conditions: Baseline to Day 29
Text: Since hemoglobin is the molecule to which oxygen attaches, MCHC is a measure of the average oxygen-carrying capacity of the red blood cells in circulating the body (https://www.verywellhealth.com/mean-cell-hemoglobin-concentration-4584155).

CaCo2 cells = test: In vitro intestinal barrier function model (TEER, Example 2); format: cell-based, human; conditions: compared to vehicle control, after 4 h chemical challenge
Text: CaCo2 cell line is derived from human epithelial cells from the colon. They are frequently used to mimic intestinal barrier function to either look at permeability of drugs or to look at is functional resistance. For the present experiment, the CaCo2 cells were used to mimic the loss of its barrier function upon challenging the cells with [COMPOUND LEFT OUT] sulfonic acid [COMPOUND LEFT OUT] and investigate the effect of IMU-856 on this by measuring the electrical transepithelial resistance (TEER). […] For this CaCo2 cells, cultivated in a 6-well trans well plate on top of the membrane that has small pores that prevent the cells from going through but allow molecules and nutrients to pass. After 3 weeks, when the TEER is stable, the monolayer is challenged with 0.25% [COMPOUND LEFT OUT] stimulation for 4 h. Then, cells were washed and fresh medium with vehicle or IMU-856 was given. TEER was measured before and after challenge at different time points. For correct measurement, the shorter electrode is inserted into the transwell chamber (without touching the cells), and the longer electrode is inserted in the outer well.

Cn1c(COc2cc(C(F)(F)F)ccn2)nnc1[C@H]1CC[C@H](c2cnn([C@H]3CC[C@H](N4CC5(CCO5)C4)CC3)c2)CC1 [IMU-856, 6-(trans-4-(4-(trans-4-(4-methyl-5-(((4-(trifluoromethyl)pyridin-2-yl)oxy)methyl)-4H-1,2,4-triazol-3-yl)cyclohexyl)-1H-pyrazol-1-yl)cyclohexyl)-1-oxa-6-azaspiro[3.3]heptane]
claudin-1 (claudin (Cldn)-1): normalisation | accumulation factor ([1]; daily dosing): low accumulation factor | steady-state plasma concentrations, time to achievement ([1]; daily dosing): within the first week | half-life ([1]; human, plasma, steady-state): 17.4 to 21.5 h | Tmax ([1]; human, plasma, steady-state, post-dose): 2 to 3 h | steady-state trough levels ([1]; over the 14-day treatment period): stable steady-state trough levels | AUC dose dependence ([1]; steady-state): dose proportional increases | Cmax dose dependence ([1]; steady-state): dose proportional increases | recovery of TEER ([2]; following inflammation with IL-6): significantly accelerates the recovery | recovery of TEER ([2]; following inflammation with TNF-α): significantly accelerates the recovery | colon histology score (DSS-induced colitis): reduction in the histology score | diarrhea score (DSS-induced colitis): improvement of the diarrhea score which was similar or even better than the positive control | mean corpuscular hemoglobin concentration (MCHC) [3]: higher mean corpuscular hemoglobin concentration; also recorded: improvement in red blood cell function | TEER (CaCo2 cells): higher TEER | TEER recovery rate (CaCo2 cells): higher recovery rate
